Measured values taken from patent US20070293580A1, “Methods for Buccal, Lingual or Sublingual Dosing Regimens of Epinephrine for the Treatment of Allergic Emergencies” (priority 2006, published 2007).

Key:
symptoms of anaphylaxis [1] = conditions: 30 mg, then 45 mg at approximately 5 minute intervals without amelioration, within about five minutes after the third dose
Experimental: A patient experiencing an allergic emergency initiates treatment at the onset of shortness of breath by self administering 30 mg of epinephrine free base in a lingual dosage form. After approximately 5 minutes pass without amelioration of the symptoms of anaphylaxis, the patient self administers a second lingual dosage form comprising 30 mg of epinephrine free base. After another approximately 5 minutes pass without amelioration of the symptoms of anaphylaxis, the patient self administers a third lingual dosage form comprising 45 mg of epinephrine free base.

symptoms of anaphylaxis [2] = conditions: 40 mg
Experimental: (§1) A patient experiencing an allergic emergency initiates treatment at the onset of shortness of breath by self administering 40 mg of epinephrine free base in a buccal dosage form.
as §1

CNC[C@H](O)c1ccc(O)c(O)c1 [epinephrine free base, epinephrine]
symptoms of anaphylaxis are relieved: patient's symptoms of anaphylaxis after the third lingual dose (symptoms of anaphylaxis [1]) | patient's symptoms of anaphylaxis after the third buccal dose (symptoms of anaphylaxis [2]; then 60 mg at approximately 5 minute intervals without amelioration, within about five minutes after the third dose) | patient's symptoms of anaphylaxis after the second buccal dose (symptoms of anaphylaxis [2]; then second 40 mg after approximately 5 minutes without amelioration, within about five minutes after the second dose)
